Data from ChEMBL document CHEMBL1136892, “New 1alpha,25-dihydroxy-19-norvitamin D(3) compounds constrained in a single A-ring conformation: synthesis of the analogues by ring-closing metathesis route and their biological evaluation” (J Med Chem, 2009).

Assays:
[1] = molecular target: T1, Vitamin D3 receptor (Rattus norvegicus) (UniProt P13053); assay: Ratio of ED50 of compound to ED50 of [3H]1-alpha,25-(OH)2D3 for VDR in rat osteosarcoma 17/2.8 cells by 24-hydroxylase gene transcriptional activation assay
T1 sequence (whole entry): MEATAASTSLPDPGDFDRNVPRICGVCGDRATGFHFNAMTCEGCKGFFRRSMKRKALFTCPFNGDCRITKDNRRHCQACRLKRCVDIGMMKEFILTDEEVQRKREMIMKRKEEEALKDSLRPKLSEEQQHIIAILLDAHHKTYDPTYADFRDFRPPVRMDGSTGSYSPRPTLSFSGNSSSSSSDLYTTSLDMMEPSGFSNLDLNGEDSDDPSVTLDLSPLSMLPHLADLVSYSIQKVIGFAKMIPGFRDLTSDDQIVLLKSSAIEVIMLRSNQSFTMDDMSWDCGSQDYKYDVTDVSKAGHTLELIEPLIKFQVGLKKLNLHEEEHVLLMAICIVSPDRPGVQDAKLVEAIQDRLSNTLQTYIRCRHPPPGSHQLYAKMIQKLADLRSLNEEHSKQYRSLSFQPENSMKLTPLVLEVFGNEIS

[2] = molecular target: T1, Vitamin D3 receptor (Rattus norvegicus); assay: Activity at VDR in rat osteosarcoma 17/2.8 cells assessed as transcriptional activation of 24-hydroxylase gene promoter after 16 hrs by luciferase reporter gene assay
Vitamin D3 receptor = molecular target: T2, Vitamin D3 receptor (Rattus norvegicus, UniProt P13053); assay: Displacement of [3H]1-alpha,25-(OH)2D3 from rat recombinant full length VDR
T2 sequence (P13053 whole entry): T1 sequence (whole entry)

[3] = molecular target: T1, Vitamin D3 receptor (Rattus norvegicus); assay: Ratio of Ki of the drug to Ki of [3H]1-alpha,25-(OH)2D3 for rat recombinant full length VDR
Rattus norvegicus [4] = assay: Effect on bone calcium mobilization in vitamin D-deficient weanling Sprague-Dawley rat assessed as serum calcium level at 7020 pmol/day, ip administered as 4 consecutive daily doses measured 24 hrs after last dose; assay type: functional
HL-60 [5] = assay: Ratio of ED50 of drug to ED50 of [3H]1-alpha,25-(OH)2D3 for induction of human HL60 cell differentiation into monocytes by NBT reduction assay; assay type: functional
HL-60 [6] = assay: Induction of human HL60 cell differentiation into monocytes after 4 days by NBT reduction assay; assay type: functional
Rattus norvegicus [7] = assay: Effect on intestinal calcium transport in vitamin D-deficient weanling Sprague-Dawley rat assessed as increase in ratio of serosal to mucosal calcium level at 7020 pmol/day, ip administered as 4 consecutive daily doses measured 24 hrs after last dose by everted gut sac method; assay type: functional
Rattus norvegicus [8] = assay: Effect on bone calcium mobilization in vitamin D-deficient weanling Sprague-Dawley rat assessed as serum calcium level at 780 pmol/day, ip administered as 4 consecutive daily doses measured 24 hrs after last dose; assay type: functional
Rattus norvegicus [9] = assay: Effect on intestinal calcium transport in vitamin D-deficient weanling Sprague-Dawley rat assessed as increase in ratio of serosal to mucosal calcium level at 780 pmol/day, ip administered as 4 consecutive daily doses measured 24 hrs after last dose by everted gut sac method; assay type: functional
Rattus norvegicus [10] = assay: Effect on bone calcium mobilization in vitamin D-deficient weanling Sprague-Dawley rat assessed as serum calcium level at 87 pmol/day, ip administered as 4 consecutive daily doses measured 24 hrs after last dose; assay type: functional
Rattus norvegicus [11] = assay: Effect on bone calcium mobilization in vitamin D-deficient weanling Sprague-Dawley rat assessed as serum calcium level at 2340 pmol/day, ip administered as 4 consecutive daily doses measured 24 hrs after last dose; assay type: functional
Rattus norvegicus [12] = assay: Effect on intestinal calcium transport in vitamin D-deficient weanling Sprague-Dawley rat assessed as increase in ratio of serosal to mucosal calcium level at 35100 pmol/day, ip administered as 4 consecutive daily doses measured 24 hrs after last dose by everted gut sac method; assay type: functional
Rattus norvegicus [13] = assay: Effect on intestinal calcium transport in vitamin D-deficient weanling Sprague-Dawley rat assessed as increase in ratio of serosal to mucosal calcium level at 2340 pmol/day, ip administered as 4 consecutive daily doses measured 24 hrs after last dose by everted gut sac method; assay type: functional
Rattus norvegicus [14] = assay: Effect on intestinal calcium transport in vitamin D-deficient weanling Sprague-Dawley rat assessed as increase in ratio of serosal to mucosal calcium level at 260 pmol/day, ip administered as 4 consecutive daily doses measured 24 hrs after last dose by everted gut sac method; assay type: functional
Rattus norvegicus [15] = assay: Effect on bone calcium mobilization in vitamin D-deficient weanling Sprague-Dawley rat assessed as serum calcium level at 35100 pmol/day, ip administered as 4 consecutive daily doses measured 24 hrs after last dose; assay type: functional
Rattus norvegicus [16] = assay: Effect on intestinal calcium transport in vitamin D-deficient weanling Sprague-Dawley rat assessed as ratio of serosal to mucosal calcium level at 87 pmol/day, ip administered as 4 consecutive daily doses measured 24 hrs after last dose by everted gut sac method; assay type: functional
Rattus norvegicus [17] = assay: Effect on bone calcium mobilization in vitamin D-deficient weanling Sprague-Dawley rat assessed as serum calcium level at 260 pmol/day, ip administered as 4 consecutive daily doses measured 24 hrs after last dose; assay type: functional

Ratio ED50 [1]	ED50 [2]	Ki (Vitamin D3 receptor) [nM]	Ratio Ki [3]	Compound	Activity (Rattus norvegicus [4]) [mg/dL]	Ratio ED50 (HL-60 [5])	ED50 (HL-60 [6])	Activity (Rattus norvegicus [7]) [mg/dL]	Activity (Rattus norvegicus [8]) [mg/dL]	Activity (Rattus norvegicus [9]) [mg/dL]	Activity (Rattus norvegicus [10]) [mg/dL]	Activity (Rattus norvegicus [11]) [mg/dL]	Activity (Rattus norvegicus [12]) [mg/dL]	Activity (Rattus norvegicus [13]) [mg/dL]	Activity (Rattus norvegicus [14]) [mg/dL]	Activity (Rattus norvegicus [15]) [mg/dL]	Activity (Rattus norvegicus [16]) [mg/dL]	Activity (Rattus norvegicus [17]) [mg/dL]
30	6 ×10⁻⁹ M	0.2	2	C=C1/C(=C\C=C2/CCC[C@]3(C)[C@@H]([C@H](C)CCCC(C)(C)O)CC[C@@H]23)C[C@@H](O)C2=CCO[C@H]12	4.6	10	3 ×10⁻⁸ M	13.7	4.3	9.7	–	–	–	–	–	–	–	–
–	2 ×10⁻¹⁰ M	–	–	C=C1/C(=C\C=C2/CCC[C@]3(C)[C@@H]([C@H](C)CCCC(C)(C)O)CC[C@@H]23)C[C@@H](O)C[C@@H]1O [CALCITRIOL]	7.9	–	3 ×10⁻⁹ M	10.2	5.8	11.3	4.9	7.3	8.7	10.2	12	9	8.9	5.6
300	6 ×10⁻⁸ M	60	600	C=C1/C(=C\C=C2/CCC[C@]3(C)[C@@H]([C@H](C)CCCC(C)(C)O)CC[C@@H]23)C[C@H]2OCC=C2[C@@H]1O	6.1	330	1 ×10⁻⁶ M	10.2	4.3	11.3	–	–	8.7	–	–	9.6	–	–
